Data set [1] is described as follows: Saturation solubility studies in various mediums. It is filed as physicochemical. As for the experimental part: Saturation solubility studies were conducted in various mediums for ivacaftor polymorph Form-L2 and Amorphous form and the data is given in Table III.
Data set [2] can be described thus: Chemical and polymorphic stability study of Ivacaftor Form-L2 on storage (HPLC, XRD). The data set is classed as physicochemical. As to the method: Ivacaftor Form L2 is packed in a transparent Low density polyethylene (LDPE) bag with a strip seal, which is again kept in a second transparent low density polyethylene bag with strip seal. The LDPE bag is kept in to a triple laminated sunlight barrier with heat seal followed by in a high density polyethylene container and well closed. The ivacaftor was analyzed using High Performance Liquid Chromatography (“HPLC”) with the conditions are tabulated below: [table]

Setting [3] is: stored at 25 ± 2° C./60 ± 5% RH, 1 month.
The mark [4] stands for this setting: stored at 25 ± 2° C./60 ± 5% RH, 3 month.
Where [5] appears, read: stored at 25 ± 2° C./60 ± 5% RH, Initial.
Where [6] appears, read: stored at 40 ± 2° C./75 ± 5% RH, 1 month.
Where [7] appears, read: stored at 40 ± 2° C./75 ± 5% RH, 3 month.
Where [8] appears, read: stored at 40 ± 2° C./75 ± 5% RH, Initial.

As usually defined, the solubility is how much of the substance goes into solution per volume.

Where two headings read alike, the source gives them in different places.

In the case of `CC(C)(C)c1cc(C(C)(C)C)c(NC(=O)c2c[nH]c3ccccc3c2=O)cc1O` [Amorphous form, N-(2,4-di-tert-butyl-5-hydroxyphenyl)-1,4-dihydro-4-oxoquinoline-3-carboxamide, reference compound], the solubility in data set [1] (0.001N HCl + 0.7% SLS, pH 3.12) came out at 230 µg/mL; in data set [1] (0.01N HCl + 0.7% SLS, pH 2.12) it was 180 µg/mL; in data set [1] (50 mM Phosphate buffer + 0.7% SLS, pH 4.60) it was 190 µg/mL; in data set [1] (0.1N HCl + 0.7% SLS, pH 1.10), 120 µg/mL; in data set [1] (pH 4.5 AB + 0.7% SLS, pH 4.52) it was 170 µg/mL; in data set [1] (pH 5.5 PB + 0.7% SLS, pH 5.53), 180 µg/mL. In addition, the solubility in data set [1] (pH 6.8 PB + 0.7% SLS, pH 6.80) worked out at 180 µg/mL.

In the case of `CC(C)(C)c1cc(C(C)(C)C)c(NC(=O)c2c[nH]c3ccccc3c2=O)cc1O` [Ivacaftor Form-L2, N-(2,4-di-tert-butyl-5-hydroxyphenyl)-1,4-dihydro-4-oxoquinoline-3-carboxamide], in data set [2] (different storage condition (25° C./60% RH and 40° C./75% RH)), the “Polymorphic and chemical identity on storage” value is “retained the same polymorphic and chemical identity at least up to three months”. Also, the “Any major unknown impurity” value in data set [2] (setting [3]) is 0.02 % by HPLC; in data set [2] (setting [4]), 0.02 % by HPLC; in data set [2] (setting [5]), 0.02 % by HPLC; in data set [2] (setting [6]), 0.01 % by HPLC; in data set [2] (setting [7]) it was 0.01 % by HPLC; in data set [2] (setting [8]), 0.02 % by HPLC. For the same compound, the Description entry in data set [2] (setting [3]), in data set [2] (setting [4]), in data set [2] (setting [5]), in data set [2] (setting [6]), in data set [2] (setting [7]) and in data set [2] (setting [8]) was “off-white” throughout. In addition, the “Solid form by XRD” value in data set [2] (setting [3]), in data set [2] (setting [4]), in data set [2] (setting [5]), in data set [2] (setting [6]), in data set [2] (setting [7]) and in data set [2] (setting [8]) was “Complies” in each case. For the same compound, the Total impurity was determined as 0.02 % by HPLC in data set [2] (setting [3]); 0.02 % by HPLC in data set [2] (setting [4]); 0.03 % by HPLC in data set [2] (setting [5]); 0.03 % by HPLC in data set [2] (setting [6]); 0.03 % by HPLC in data set [2] (setting [7]); 0.03 % by HPLC in data set [2] (setting [8]). In addition, the “Quinolone acid (Imp-3)” value in data set [2] (stored at 25 ± 2° C./60 ± 5% RH, Initial, LOD 0.006%) was found to be 0.01 % by HPLC. For the same compound, the “Impurity at RRT 0.59” value in data set [2] (setting [8]) worked out at 0.01 % by HPLC. The solubility in data set [1] (0.001N HCl + 0.7% SLS, pH 3.12, aqueous with cosolvent or surfactant or cyclodextrin, thermodynamic from solid, 0.001N HCl + 0.7% SLS, pH 3.12, read-out: Solubility) came out at 240 µg/mL; in data set [1] (0.01N HCl + 0.7% SLS, pH 2.12, aqueous with cosolvent or surfactant or cyclodextrin, thermodynamic from solid, 0.01N HCl + 0.7% SLS, pH 2.12, read-out: Solubility) it was 260 µg/mL; in data set [1] (50 mM Phosphate buffer + 0.7% SLS, pH 4.6, aqueous with cosolvent or surfactant or cyclodextrin, thermodynamic from solid, 50 mM Phosphate buffer + 0.7% SLS, pH 4.60, read-out: Solubility), 380 µg/mL; in data set [1] (0.1N HCl + 0.7% SLS, pH 1.1, aqueous with cosolvent or surfactant or cyclodextrin, thermodynamic from solid, 0.1N HCl + 0.7% SLS, pH 1.10, read-out: Solubility) it was 150 µg/mL; in data set [1] (pH 4.5 AB + 0.7% SLS, pH 4.52, aqueous with cosolvent or surfactant or cyclodextrin, thermodynamic from solid, pH 4.5 AB + 0.7% SLS, pH 4.52, read-out: Solubility) it was 310 µg/mL; in data set [1] (pH 5.5 PB + 0.7% SLS, pH 5.53, aqueous with cosolvent or surfactant or cyclodextrin, thermodynamic from solid, pH 5.5 PB + 0.7% SLS, pH 5.53, read-out: Solubility) it was 260 µg/mL. Also, in data set [1] (pH 6.8 PB + 0.7% SLS, pH 6.8, aqueous with cosolvent or surfactant or cyclodextrin, thermodynamic from solid, pH 6.8 PB + 0.7% SLS, pH 6.80, read-out: Solubility), the solubility was determined as 260 µg/mL. In data set [1] (various mediums, Table III), the “Solubility compared to amorphous form” value is recorded as “more solubility when compared to amorphous form”.

(Values after patent publication US9957234B2, “Polymorphs of Ivacaftor, process for its preparation and pharmaceutical composition thereof” (Laurus Labs Limited, priority 2014, dated 2018).)
